The supplement of paper PMC10307832

Key:
Experiment in all cases: relative viability (nuclei count vs DMSO), 5 days (fraction); higher = more cells survive
[1] = compound: CS(=O)(=O)CCNCc1ccc(-c2ccc3ncnc(Nc4ccc(OCc5cccc(F)c5)c(Cl)c4)c3c2)o1 [Lapatinib] + CC(=O)Nc1cccc(-n2c(=O)n(C3CC3)c(=O)c3c(Nc4ccc(I)cc4F)n(C)c(=O)c(C)c32)c1 [Trametinib] (partner 0.02 µM)
How it was run: (§1)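 After 5 days of treatment, lung cancer cells in 1536-well plates were fixed and stained in a single step (final 0.05% Triton X-100, 1% formaldehyde, 1 ug/ml Hoechst) and their nuclei counted on 4× images. Treatment had been applied by pin tool the day after seeding as one drug alone or as a fixed anchor-drug dose with five library-drug doses (not always all listed) in √10 steps. Relative viability is the nuclei count of treated wells divided by that of vehicle wells, and values are medians of duplicate plates.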

[2] = compound: CS(=O)(=O)CCNCc1ccc(-c2ccc3ncnc(Nc4ccc(OCc5cccc(F)c5)c(Cl)c4)c3c2)o1 [Lapatinib] + CS(=O)(=O)N1CCN(Cc2cc3nc(-c4cccc5[nH]ncc45)nc(N4CCOCC4)c3s2)CC1 [Pictilisib] (partner 1 µM)
How it was run: as §1

[3] = compound: CS(=O)(=O)CCNCc1ccc(-c2ccc3ncnc(Nc4ccc(OCc5cccc(F)c5)c(Cl)c4)c3c2)o1 [Lapatinib] + CC(=O)c1c(C)c2cnc(Nc3ccc(N4CCNCC4)cn3)nc2n(C2CCCC2)c1=O [Palbociclib] (partner 0.5 µM)
How it was run: as §1

[4] = compound: CC1=NC=CC(=C1)C2=CC=C(C=C2)CC(=O)NC3=CC=C(C=C3)C4=CN=CC=C4 [Wnt-C59] + NC(=O)Nc1cc(-c2cccc(F)c2)sc1C(=O)N[C@H]1CCCNC1 [AZD7762] (partner 0.2 µM)
How it was run: as §1

Cell Line	relative viability ([1]; first compound 0.06325 µM)	relative viability ([1]; first compound 0.2 µM)	relative viability ([1]; first compound 0.6325 µM)	relative viability ([1]; first compound 2 µM)	relative viability ([2]; first compound 0.06325 µM)	relative viability ([2]; first compound 0.2 µM)	relative viability ([2]; first compound 0.6325 µM)	relative viability ([2]; first compound 2 µM)	relative viability ([3]; first compound 0.06325 µM)	relative viability ([3]; first compound 0.2 µM)	relative viability ([3]; first compound 0.6325 µM)	relative viability ([3]; first compound 2 µM)	relative viability ([4]; first compound 0.001 µM)	relative viability ([4]; first compound 0.01 µM)	relative viability ([4]; first compound 0.03162 µM)	relative viability ([4]; first compound 0.1 µM)	relative viability ([1]; first compound 0.02 µM)	relative viability ([2]; first compound 0.02 µM)	relative viability ([3]; first compound 0.02 µM)
NCI-H1734	0.548	0.626	0.691	0.721	0.354	0.451	0.47	0.534	0.271	0.31	0.332	0.303	0.589	0.517	0.641	0.543			
NCI-H1755	0.729	0.792	0.793	0.717	0.363	0.433	0.437	0.371	0.463	0.423	0.417	0.48	0.498	0.433	0.436	0.473	0.77	0.244	0.475
NCI-H1792		0.402	0.457	0.352	0.236	0.294	0.302	0.123		0.614	0.559	0.6	0.659	0.676	0.701	0.854		0.292	0.618
NCI-H1793	0.416	0.469	0.406	0.394			0.368	0.318	0.25	0.258	0.293	0.241	0.467	0.408	0.536	0.532			
NCI-H1915	0.29	0.3	0.292	0.304	0.909	0.982	0.981	0.949	0.517	0.489	0.496	0.522	0.761	0.69	0.708	0.69			
NCI-H1944	0.35	0.388	0.322	0.288		0.348	0.343	0.318	0.253	0.265	0.275	0.225	0.474	0.482	0.452	0.534	0.41		0.304
NCI-H1975	0.282	0.328	0.384	0.254	0.24	0.309	0.329	0.192	0.492	0.518	0.575	0.311	0.72	0.653	0.724	0.773	0.264	0.281	0.285
NCI-H1993		0.57	0.496	0.477		0.808	0.812	0.977		0.471	0.588	0.433	0.965	0.665	1.05	0.769	0.458	0.715	0.687
NCI-H2085	0.56	0.511	0.559	0.452	0.454	0.553	0.54	0.45	0.462	0.474	0.445	0.338	0.901	0.865	1.06	0.957	0.404	0.389	0.485
NCI-H2087	0.186	0.182	0.217	0.191	0.737	1.03	0.963	0.802	0.161	0.177	0.251	0.246	1.43	1.37	1.28	1.2	0.208	0.472	0.238
NCI-H2126	0.417	0.467	0.533	0.402	0.402	0.474	0.49	0.431	0.349	0.346	0.348	0.319	1.01	1.02	1.02	1.05	0.536		0.38
NCI-H2170	0.82	0.792	0.683	0.238	0.207	0.275	0.244	0.237	0.313	0.271	0.277	0.136	0.762	0.688	0.992	0.836	0.874	0.281	0.376
NCI-H2347	0.236	0.278	0.302	0.281	0.673	0.663	0.646	0.873	0.45	0.456	0.378	0.386	0.726	0.738	0.779	0.698	0.298	0.598	0.385
NCI-H2405	0.409		0.52	0.438	0.412	0.428	0.398	0.397	0.452		0.505	0.518	0.759	0.75	0.759	0.8			
NCI-H3122	0.203	0.207	0.218	0.248	0.481	0.636	0.603	0.751	0.176	0.17	0.198	0.236	1.03	0.949	1.05	0.973	0.256	0.564	0.185
PC-3 [JPC-3]	0.675		0.721	0.412	0.687	0.621	0.769	0.512	0.589		0.546	0.444	0.883	1.05	0.758	0.927			
PC-14	0.674	0.796	0.827	0.0695	0.641	0.768	0.804	0.121	0.526	0.451	0.373	0.0812	0.414	0.367	0.351	0.457	0.768	0.543	0.497
RERF-LC-KJ	0.903	0.758	0.792	0.642	0.907	0.595	0.438	0.325	0.885	0.996	0.864	0.799	0.965	0.934	1.19	0.912	0.854	0.472	1.11
